Laboratory results taken from article PMC12624955, “Exploring diarylheptanoid derivatives to target LIMK1 as potential agents against colorectal cancer” (Journal of Enzyme Inhibition and Medicinal Chemistry, 2025).

How the values were obtained:
[1] = target: T1, VRK2 (Homo sapiens, UniProt Q86Y07); assay: SelectScreen kinase panel, LanthaScreen Eu kinase binding assay; conditions: read-out: Inhibition percentage at 1 μM
T1 construct: purchased Thermo Fisher Scientific SelectScreen
Protocol: (§1) The inhibitory activities of the compounds against kinases were tested using the SelectScreen Kinase assay from Thermo Fisher Scientific in Waltham, MA, USA. The LanthaScreen Eu kinase binding assay was used to validate the LIMK1 inhibition activity of the compounds, and was performed according to the manufacturer’s protocol (https://www.thermofisher.com/tw/zt/home/industrial/pharma-biopharma/drug-discovery-development/target-and-lead-identification-and-validation/kinasebiology/kinase-activity-assays/lanthascreentm-eu-kinase-binding-assay/lanthascreen-eu-kinase-binding-assay-validation-table.html). This endpoint assay quantifies inhibitor binding through the displacement of a fluorescently labelled ATP-competitive tracer from LIMK1. A mixture of the 100× compounds, 2× LIMK1/antibody mixture (Eu-anti-His), 4× tracer 236, and kinase buffer were mixed sequentially. After incubation at room temperature for 1 h, the mixture was analysed using a fluorescence plate reader. The kinase inhibition assay results were expressed as the average of two replicates.
(§2) Kinase panel screening was carried out using the SelectScreen Kinase Assay (Thermo Fisher Scientific, Waltham, MA, USA). Three complementary assay formats were applied: the Z′-LYTE kinase assay, LanthaScreen Eu kinase binding assay, and Adapta Universal kinase assay. The kinases selected for this study and the corresponding assay formats are summarised in Supplementary Table S1.

[2] = target: T2, ICK (Homo sapiens, UniProt Q9UPZ9); assay: as above; conditions: read-out: Inhibition percentage at 1 μM
T2 construct: purchased Thermo Fisher Scientific SelectScreen
Protocol: as §1, §2

[3] = target: T3, LIMK2 (Homo sapiens, UniProt P53671); assay: as above; conditions: read-out: Inhibition percentage at 1 μM
T3 construct: purchased Thermo Fisher Scientific SelectScreen
Protocol: as §1, §2

[4] = target: T4, MAP2K1 (MEK1) (Homo sapiens, UniProt Q02750); assay: as above; conditions: read-out: Inhibition percentage at 1 μM
T4 construct: purchased Thermo Fisher Scientific SelectScreen
Protocol: as §1, §2

[5] = target: T5, WEE1 (Homo sapiens, UniProt P30291); assay: as above; conditions: read-out: Inhibition percentage at 1 μM
T5 construct: purchased Thermo Fisher Scientific SelectScreen
Protocol: as §1, §2

[6] = target: T6, BRAF (Homo sapiens, UniProt P15056); assay: as above; conditions: read-out: Inhibition percentage at 1 μM
T6 construct: purchased Thermo Fisher Scientific SelectScreen
Protocol: as §1, §2

[7] = target: T7, EPHA3 (Homo sapiens, UniProt P29320); assay: as above; conditions: read-out: Inhibition percentage at 1 μM
T7 construct: purchased Thermo Fisher Scientific SelectScreen
Protocol: as §1, §2

[8] = target: T8, TGFBR1 (ALK5) (Homo sapiens, UniProt P36897); assay: as above; conditions: read-out: Inhibition percentage at 1 μM
T8 construct: purchased Thermo Fisher Scientific SelectScreen
Protocol: as §1, §2

[9] = test system: HT-29; assay: Sulforhodamine B assay (cell proliferation); assay type: cell-based; conditions: Homo sapiens, SRB assay, 72 h, mean ± SD
Protocol: Colorectal cell line, HCT-116, was purchased from the Bioresource Collection and Research Centre (BCRC, Hsinchu, Taiwan), while HT-29 was obtained from the American Type Culture Collection (ATCC, Manassas, VA, USA). Both cell lines were maintained in McCoy’s 5 A medium (with L-glutamine and 2.2 g/L NaHCO3, M4892, Sigma) supplemented with 10% foetal bovine serum (Corning Incorporated, NY, USA) and 1% penicillin–streptomycin–amphotericin B (100 unit/ml penicillin G, 0.1 mg/ml streptomycin sulphate, 0.25 μg/ml amphotericin B, Corning Incorporated, NY, USA). All cultures were maintained in a humidified incubator at 37 °C with 5% CO2.
Cells were seeded in 96-well plates at a density of 3 × 10^3 cells/well in 100 μl of culture medium and treated with compounds at the indicated concentrations for 72 h. After treatment, cells were fixed with 10% trichloroacetic acid for 20 min and washed with H2O. The cells were then stained with 0.4% sulforhodamine B (SRB) in 1% acetic acid for 20 min, followed by two washes with 1% acetic acid. After the well-dried, the protein-bound dye was dissolved in 100 µl of 10 mM Tris base solution, and the absorbance was measured at 515 nm using an ELISA reader (Molecular Device, Sunnyvale, CA, USA).

T3 sequence (P53671 whole entry): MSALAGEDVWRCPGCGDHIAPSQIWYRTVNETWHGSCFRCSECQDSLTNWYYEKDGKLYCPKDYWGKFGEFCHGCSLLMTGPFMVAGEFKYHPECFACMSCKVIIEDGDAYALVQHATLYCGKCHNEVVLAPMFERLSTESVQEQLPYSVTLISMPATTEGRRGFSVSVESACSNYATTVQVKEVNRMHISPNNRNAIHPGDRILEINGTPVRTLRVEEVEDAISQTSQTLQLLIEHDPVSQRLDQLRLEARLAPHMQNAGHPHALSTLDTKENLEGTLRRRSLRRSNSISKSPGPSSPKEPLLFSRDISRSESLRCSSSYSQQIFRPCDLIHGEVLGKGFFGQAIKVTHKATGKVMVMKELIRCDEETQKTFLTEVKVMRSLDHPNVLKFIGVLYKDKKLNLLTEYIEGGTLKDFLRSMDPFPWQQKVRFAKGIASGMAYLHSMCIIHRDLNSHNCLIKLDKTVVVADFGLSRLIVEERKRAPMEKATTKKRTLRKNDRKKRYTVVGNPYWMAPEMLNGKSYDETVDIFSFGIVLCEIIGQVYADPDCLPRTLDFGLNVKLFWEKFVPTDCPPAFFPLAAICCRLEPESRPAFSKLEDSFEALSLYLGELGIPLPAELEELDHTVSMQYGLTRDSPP
T4 sequence (Q02750 whole entry): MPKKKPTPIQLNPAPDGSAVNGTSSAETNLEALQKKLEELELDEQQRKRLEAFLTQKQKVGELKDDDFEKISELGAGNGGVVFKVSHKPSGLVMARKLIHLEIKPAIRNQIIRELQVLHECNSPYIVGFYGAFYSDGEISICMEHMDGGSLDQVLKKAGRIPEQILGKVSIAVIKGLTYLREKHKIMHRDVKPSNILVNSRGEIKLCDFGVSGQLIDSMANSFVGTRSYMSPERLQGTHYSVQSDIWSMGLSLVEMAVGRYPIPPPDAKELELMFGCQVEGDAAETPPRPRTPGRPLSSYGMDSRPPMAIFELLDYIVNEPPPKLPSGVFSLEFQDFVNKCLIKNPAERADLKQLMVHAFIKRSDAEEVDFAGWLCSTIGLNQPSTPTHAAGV
T2 sequence (Q9UPZ9 whole entry): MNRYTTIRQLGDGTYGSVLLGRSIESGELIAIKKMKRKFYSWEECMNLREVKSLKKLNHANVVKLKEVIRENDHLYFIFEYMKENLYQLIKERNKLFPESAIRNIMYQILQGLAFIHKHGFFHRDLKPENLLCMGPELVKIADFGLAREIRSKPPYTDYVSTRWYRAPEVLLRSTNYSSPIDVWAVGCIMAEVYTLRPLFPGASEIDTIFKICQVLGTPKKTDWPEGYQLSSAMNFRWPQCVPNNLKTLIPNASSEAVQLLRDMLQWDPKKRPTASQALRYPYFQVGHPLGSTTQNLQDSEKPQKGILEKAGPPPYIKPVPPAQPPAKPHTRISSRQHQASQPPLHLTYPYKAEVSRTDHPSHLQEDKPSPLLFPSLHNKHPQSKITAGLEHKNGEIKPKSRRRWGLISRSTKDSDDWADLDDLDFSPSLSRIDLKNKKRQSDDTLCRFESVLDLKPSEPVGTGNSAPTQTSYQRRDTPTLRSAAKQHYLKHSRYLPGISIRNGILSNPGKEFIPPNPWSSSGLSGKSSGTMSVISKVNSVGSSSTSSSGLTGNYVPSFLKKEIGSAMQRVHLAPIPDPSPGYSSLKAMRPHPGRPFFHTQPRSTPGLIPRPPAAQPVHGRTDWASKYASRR
T6 sequence (P15056 whole entry): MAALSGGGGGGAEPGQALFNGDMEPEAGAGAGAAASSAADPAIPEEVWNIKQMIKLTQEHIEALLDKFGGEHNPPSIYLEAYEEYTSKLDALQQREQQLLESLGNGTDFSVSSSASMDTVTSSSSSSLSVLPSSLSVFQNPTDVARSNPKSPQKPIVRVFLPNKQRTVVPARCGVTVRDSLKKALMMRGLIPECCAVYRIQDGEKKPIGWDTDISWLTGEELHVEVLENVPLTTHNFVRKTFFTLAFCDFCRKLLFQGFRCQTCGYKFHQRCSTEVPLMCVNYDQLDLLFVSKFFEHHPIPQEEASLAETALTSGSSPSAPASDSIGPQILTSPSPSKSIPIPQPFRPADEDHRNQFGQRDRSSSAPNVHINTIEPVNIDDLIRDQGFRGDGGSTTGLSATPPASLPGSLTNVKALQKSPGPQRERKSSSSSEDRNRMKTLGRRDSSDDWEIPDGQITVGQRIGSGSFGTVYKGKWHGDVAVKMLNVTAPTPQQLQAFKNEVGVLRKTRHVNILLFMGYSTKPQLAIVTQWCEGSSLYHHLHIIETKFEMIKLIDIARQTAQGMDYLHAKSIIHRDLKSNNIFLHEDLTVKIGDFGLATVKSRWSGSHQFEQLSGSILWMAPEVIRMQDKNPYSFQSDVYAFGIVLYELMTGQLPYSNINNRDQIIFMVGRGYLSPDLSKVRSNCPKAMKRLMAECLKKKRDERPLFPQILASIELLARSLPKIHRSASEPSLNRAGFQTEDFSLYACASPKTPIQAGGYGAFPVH
T1 sequence (Q86Y07 whole entry): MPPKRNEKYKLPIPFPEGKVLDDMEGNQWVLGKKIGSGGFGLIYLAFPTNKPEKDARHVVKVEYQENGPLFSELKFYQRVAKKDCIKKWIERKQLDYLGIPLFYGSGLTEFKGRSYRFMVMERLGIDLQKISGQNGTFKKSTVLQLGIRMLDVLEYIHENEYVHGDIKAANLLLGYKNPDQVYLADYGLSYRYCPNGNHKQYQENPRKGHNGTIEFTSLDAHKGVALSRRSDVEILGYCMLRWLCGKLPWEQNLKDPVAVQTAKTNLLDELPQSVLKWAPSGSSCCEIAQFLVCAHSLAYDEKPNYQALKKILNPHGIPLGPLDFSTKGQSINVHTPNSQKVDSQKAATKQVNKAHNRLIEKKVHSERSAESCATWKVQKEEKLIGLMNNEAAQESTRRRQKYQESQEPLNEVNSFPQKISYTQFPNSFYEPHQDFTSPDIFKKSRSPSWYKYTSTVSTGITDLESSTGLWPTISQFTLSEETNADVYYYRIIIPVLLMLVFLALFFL
T8 sequence (P36897 34-503): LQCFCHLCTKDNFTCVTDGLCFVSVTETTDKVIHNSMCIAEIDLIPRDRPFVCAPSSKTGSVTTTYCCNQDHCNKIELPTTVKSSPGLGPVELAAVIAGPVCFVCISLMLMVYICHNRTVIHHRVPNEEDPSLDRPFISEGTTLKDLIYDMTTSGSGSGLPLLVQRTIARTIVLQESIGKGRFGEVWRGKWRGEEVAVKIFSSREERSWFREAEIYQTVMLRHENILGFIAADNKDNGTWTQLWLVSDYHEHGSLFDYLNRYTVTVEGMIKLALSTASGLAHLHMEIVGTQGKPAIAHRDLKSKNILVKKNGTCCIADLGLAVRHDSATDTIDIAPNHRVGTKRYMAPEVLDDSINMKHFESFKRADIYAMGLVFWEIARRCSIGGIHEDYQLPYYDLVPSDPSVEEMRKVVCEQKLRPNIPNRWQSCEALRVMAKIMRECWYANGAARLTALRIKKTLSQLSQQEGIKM
T5 sequence (P30291 whole entry): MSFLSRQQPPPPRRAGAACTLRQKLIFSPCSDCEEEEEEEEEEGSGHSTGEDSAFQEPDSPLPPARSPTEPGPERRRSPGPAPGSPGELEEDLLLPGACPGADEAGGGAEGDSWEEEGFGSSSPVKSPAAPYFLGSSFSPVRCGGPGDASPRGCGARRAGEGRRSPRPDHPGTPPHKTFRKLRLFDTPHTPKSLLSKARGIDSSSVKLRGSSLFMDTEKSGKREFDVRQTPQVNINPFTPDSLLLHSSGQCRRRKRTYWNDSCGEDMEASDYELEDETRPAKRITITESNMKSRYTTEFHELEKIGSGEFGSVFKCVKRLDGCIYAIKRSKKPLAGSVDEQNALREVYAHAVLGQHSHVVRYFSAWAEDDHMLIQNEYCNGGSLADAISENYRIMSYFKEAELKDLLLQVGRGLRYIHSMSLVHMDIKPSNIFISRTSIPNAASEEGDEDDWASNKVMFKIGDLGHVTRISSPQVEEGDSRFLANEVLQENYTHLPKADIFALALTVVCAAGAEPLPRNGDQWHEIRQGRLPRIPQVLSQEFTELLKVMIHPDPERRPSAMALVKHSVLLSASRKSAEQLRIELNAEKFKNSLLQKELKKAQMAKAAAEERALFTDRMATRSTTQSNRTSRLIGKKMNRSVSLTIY
T7 sequence (P29320 21-983): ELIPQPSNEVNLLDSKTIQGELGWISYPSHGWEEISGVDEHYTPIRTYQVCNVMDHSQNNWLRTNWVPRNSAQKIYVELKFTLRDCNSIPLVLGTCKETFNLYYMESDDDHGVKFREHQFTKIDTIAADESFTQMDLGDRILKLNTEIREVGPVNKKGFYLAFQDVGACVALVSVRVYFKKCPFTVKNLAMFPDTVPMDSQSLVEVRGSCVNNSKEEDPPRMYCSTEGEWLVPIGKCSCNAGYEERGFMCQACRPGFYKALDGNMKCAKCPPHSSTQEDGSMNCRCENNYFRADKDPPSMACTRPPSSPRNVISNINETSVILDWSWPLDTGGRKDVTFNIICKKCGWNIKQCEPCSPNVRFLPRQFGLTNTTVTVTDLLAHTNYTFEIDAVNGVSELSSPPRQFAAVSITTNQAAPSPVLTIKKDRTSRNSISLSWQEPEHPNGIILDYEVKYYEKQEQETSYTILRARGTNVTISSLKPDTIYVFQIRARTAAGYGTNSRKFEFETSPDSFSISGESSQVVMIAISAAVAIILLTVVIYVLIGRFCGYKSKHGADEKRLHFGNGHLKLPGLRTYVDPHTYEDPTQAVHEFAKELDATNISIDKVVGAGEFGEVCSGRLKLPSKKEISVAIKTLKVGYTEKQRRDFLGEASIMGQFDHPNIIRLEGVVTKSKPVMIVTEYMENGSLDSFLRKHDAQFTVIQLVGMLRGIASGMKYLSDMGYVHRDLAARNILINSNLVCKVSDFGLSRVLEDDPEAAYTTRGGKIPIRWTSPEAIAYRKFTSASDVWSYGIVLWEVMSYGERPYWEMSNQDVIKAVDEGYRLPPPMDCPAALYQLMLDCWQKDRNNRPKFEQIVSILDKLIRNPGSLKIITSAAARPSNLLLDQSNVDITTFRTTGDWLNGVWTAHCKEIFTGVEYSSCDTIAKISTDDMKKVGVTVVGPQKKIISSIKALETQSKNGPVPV

- inhibition at 1 µM [1]: 3%
- inhibition at 1 µM [2]: 32%
- inhibition at 1 µM [3]: 30%
- inhibition at 1 µM [4]: 4%
- inhibition at 1 µM [5]: 44%
- inhibition at 1 µM [6]: 16%
- inhibition at 1 µM [7]: 2%
- inhibition at 1 µM [8]: 24%
- GI50 [9]: 10.4 ± 0.6 µM
Compound: O=C(/C=C/c1ccc(O)c(O)c1)CCCCn1ccc2c(O)cccc21 [Compound 13a, (E)-1-(3,4-dihydroxyphenyl)-7-(4-hydroxy-1H-indol-1-yl)hept-1-en-3-one]
